Data taken from patent US10005739B2, “Quinazolinone and isoquinolinone derivative” (CHUGAI SEIYAKU KABUSHIKI KAISHA, priority 2013, dated 2018).

What follows are compounds tested against DDR1 (Homo sapiens (Human), UniProt Q08345) (assay: Measurement of DDR1 enzyme inhibitory activity (phosphorylation of biotinylated peptide, time-resolved fluorescence)). Conditions: human DDR1 enzyme, biotinylated peptide phosphorylation; read-out: DDR1 enzyme inhibition assay IC50.
Type: biochemical
Experimental: 1. Measurement of DDR1 Enzyme Inhibitory Activity
The DDR1 enzyme inhibitory activity was determined with human DDR1 enzyme prepared using the baculovirus expression system, based on the inhibitory activity of phosphorylation of a biotinylated peptide ([…]) by the enzyme. The phosphorylated biotinylated peptide was detected using time-resolved fluorescence, with an anti-phosphorylated tyrosine antibody conjugated with europium cryptate and streptavidin conjugated with XL665 which is a derivative of allophycocyanin.

Chain of DDR1 (Q08345 19-913): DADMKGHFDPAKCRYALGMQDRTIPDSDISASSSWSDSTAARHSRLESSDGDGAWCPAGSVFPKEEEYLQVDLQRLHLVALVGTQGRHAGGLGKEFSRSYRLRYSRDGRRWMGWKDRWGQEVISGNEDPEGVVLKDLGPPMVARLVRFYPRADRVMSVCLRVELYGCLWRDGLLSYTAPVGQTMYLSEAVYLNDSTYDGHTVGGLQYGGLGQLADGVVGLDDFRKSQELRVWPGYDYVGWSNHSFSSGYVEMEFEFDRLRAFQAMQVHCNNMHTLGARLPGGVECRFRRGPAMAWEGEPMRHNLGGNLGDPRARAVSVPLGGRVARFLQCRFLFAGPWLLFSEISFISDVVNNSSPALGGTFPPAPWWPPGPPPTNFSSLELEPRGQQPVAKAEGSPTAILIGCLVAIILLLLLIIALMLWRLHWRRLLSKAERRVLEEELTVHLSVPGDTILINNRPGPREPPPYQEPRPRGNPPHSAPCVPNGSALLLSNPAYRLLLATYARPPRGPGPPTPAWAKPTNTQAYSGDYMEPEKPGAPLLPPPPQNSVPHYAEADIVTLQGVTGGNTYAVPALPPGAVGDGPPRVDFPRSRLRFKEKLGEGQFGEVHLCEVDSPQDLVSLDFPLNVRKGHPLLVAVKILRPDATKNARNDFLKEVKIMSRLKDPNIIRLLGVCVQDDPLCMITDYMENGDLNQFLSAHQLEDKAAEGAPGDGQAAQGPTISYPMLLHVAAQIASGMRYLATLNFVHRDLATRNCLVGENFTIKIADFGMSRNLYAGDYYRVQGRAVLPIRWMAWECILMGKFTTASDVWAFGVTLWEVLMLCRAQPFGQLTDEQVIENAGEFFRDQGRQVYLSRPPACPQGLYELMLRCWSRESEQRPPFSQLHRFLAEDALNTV

Question: Which IC50 does the source give for `CCCc1ccc(Cl)cc1Nn1cnc2ccc(OC(F)(F)F)cc2c1=O` [Compound B-17, 3-(5-Chloro-2-propylanilino)-6-(trifluoromethoxy)quinazolin-4-one] here?
Answer: 410 nM

Question: For `CCSc1ccc(Br)cc1Nn1cnc2c(Br)cc(C(F)(F)F)cc2c1=O` [Compound C-25, 8-Bromo-3-(5-bromo-2-ethylsulfanylanilino)-6-(trifluoromethyl)quinazolin-4-one], which IC50 is on record?
Answer: 180 nM

Question: Which IC50 does the source give for `CCSc1ccc(C#N)cc1Nn1cnc2ccc(C(F)(F)F)cc2c1=O` [Compound C-9, 4-Ethylsulfanyl-3-[[4-oxo-6-(trifluoromethyl)quinazolin-3-yl]amino]benzonitrile] here?
Answer: 99 nM

Question: Which IC50 does the source give for `CCS(=O)(=O)c1ccc(Br)cc1Nn1cnc2c(Br)cc(OC(F)(F)F)cc2c1=O` [Compound C-24, 8-Bromo-3-(5-bromo-2-ethylsulfonylanilino)-6-(trifluoromethoxy)quinazolin-4-one] here?
Answer: 280 nM

Question: How did the IC50 turn out when `CCOc1ccc(S(=O)(=O)CC)c(Nn2cnc3c(Br)cc(C(F)(F)F)cc3c2=O)c1` [Compound C-32, 8-Bromo-3-(5-ethoxy-2-ethylsulfonylanilino)-6-(trifluoromethyl)quinazolin-4-one] was run?
Answer: 1970 nM

Question: `CCCSc1ccc(Cl)cc1Nn1cnc2c(Br)cc(C)cc2c1=O` [Compound B-3, 8-Bromo-3-(5-chloro-2-propylsulfanylanilino)-6-methylquinazolin-4-one] was tested. Which IC50 did it give?
Answer: 140 nM

Question: `CCSc1cc(Cl)c(C#N)cc1Nn1cnc2ccc(C(F)(F)F)cc2c1=O` [Compound C-42, 2-Chloro-4-ethylsulfanyl-5-[[4-oxo-6-(trifluoromethyl)quinazolin-3-yl]amino]benzonitrile] was tested. Which IC50 did it give?
Answer: 450 nM

Question: `CCS(=O)(=O)c1ccc(C#N)cc1Nn1cnc2ncc(Br)cc2c1=O` [Compound C-8, 3-[(6-Bromo-4-oxopyrido[2,3-d]pyrimidin-3-yl)amino]-4-ethylsulfonylbenzonitrile] was tested. Which IC50 did it give?
Answer: 6400 nM

Question: `CCS(=O)(=O)c1ccc(Br)cc1Nn1cnc2c(Br)cc(C(F)(F)F)cc2c1=O` [Compound C-26, 8-Bromo-3-(5-bromo-2-ethylsulfonylanilino)-6-(trifluoromethyl)quinazolin-4-one] was tested. Which IC50 did it give?
Answer: 150 nM

Question: How did the IC50 turn out when `CCS(=O)(=O)c1ccc(Cl)cc1Nn1cnc2cc(Br)c(C(F)F)cc2c1=O` [Compound A-6, 7-Bromo-3-(5-chloro-2-ethylsulfonylanilino)-6-(difluoromethyl)quinazolin-4-one] was run?
Answer: 70 nM

Question: With `CCS(=O)(=O)c1ccc(Cl)cc1Cn1cnc2c(Br)cc(OC(F)(F)F)cc2c1=O` [Compound E-12, 8-Bromo-3-[(5-chloro-2-ethylsulfonylphenyl)methyl]-6-(trifluoromethoxy)quinazolin-4-one] as the compound, how does the IC50 read?
Answer: 390 nM

Question: With `CCS(=O)(=O)c1ccc(Cl)cc1Nn1cnc2cc3c(cc2c1=O)OCO3` [Compound A-41, 7-(5-Chloro-2-ethylsulfonylanilino)-[1,3]dioxolo[4,5-g]quinazolin-8-one] as the compound, how does the IC50 read?
Answer: 1950 nM

Question: For `CCS(=O)(=O)c1ccc(Cl)cc1Nn1cnc2cnc(Cl)cc2c1=O` [Compound A-15, 6-Chloro-3-(5-chloro-2-ethylsulfonylanilino)pyrido[3,4-d]pyrimidin-4-one], which IC50 is on record?
Answer: 1230 nM

Question: `CCS(=O)(=O)c1ccc(Cl)cc1Nn1cnc2ccc(C)cc2c1=O` [Compound A-51, 3-(5-Chloro-2-ethylsulfonylanilino)-6-methylquinazolin-4-one] was tested. Which IC50 did it give?
Answer: 110 nM

Question: With `CCS(=O)(=O)c1ccc(Cl)cc1Nn1cnc2cc3c(cc2c1=O)OCCO3` [Compound A-43, 3-(5-Chloro-2-ethylsulfonylanilino)-7,8-dihydro-[1,4]dioxino[2,3-g]quinazolin-4-one] as the compound, how does the IC50 read?
Answer: 600 nM

Question: For `CCSc1ccc(F)cc1Nn1cnc2c(Br)cc(C(F)(F)F)cc2c1=O` [Compound C-21], which IC50 is on record?
Answer: 600 nM

Question: With `CCS(=O)(=O)c1ccc(Cl)cc1Nn1cnc2c(I)cc(C(F)(F)F)cc2c1=O` [Compound A-13, 3-(5-Chloro-2-ethylsulfonylanilino)-8-iodo-6-(trifluromethyl)quinazolin-4-one] as the compound, how does the IC50 read?
Answer: 240 nM
